Measurements from ChEMBL document CHEMBL3875160, “Structure-activity relationship study of peptidomimetic aldehydes as enterovirus 71 3C protease inhibitors” (Eur J Med Chem, 2016).
pEC50, pIC50, pKi: −log10 of the molar value.

What was measured:
[1] = Inhibition of EV71 protease 3C expressed in Escherichia coli BL21 using substrate NMA-IEALFQGPPK(DNP)FR preincubated for 30 mins followed by substrate addition measured after 2 hrs; parameters: species or system Enterovirus A71
Enterovirus A71 = assay: Antiviral activity against EV71 FY pseudotype virus infected in human rhabdomyosarcoma cells after 24 hrs by bright-glo luciferase reporter gene assay; assay type: functional; conditions: Enterovirus A
[2] = Cytotoxicity against human rhabdomyosarcoma cells assessed as decrease in cell viability after 24 hrs by WST-1 assay; assay type: toxicity, cell-based

Compound | pIC50 [1] | pEC50 (Enterovirus A71) | pKi [1] | CC50 at 24 h [2]
O=C[C@H](C[C@@H]1CCCNC1=O)NC(=O)[C@H](Cc1ccc(F)cc1)NC(=O)/C=C/c1ccc(F)cc1 | 6.33 | 6.59 | 6.49 | > 100 µM
COc1cc(/C=C/C(=O)N[C@@H](Cc2ccccc2)C(=O)N[C@H](C=O)C[C@@H]2CCCNC2=O)cc(OC)c1OC | 5.14 | 5.21 | 5.30 | > 100 µM
O=C[C@H](C[C@@H]1CCCNC1=O)NC(=O)[C@H](Cc1ccccc1)NC(=O)Cc1ccccc1 | 6.15 | 6.27 | 6.32 | > 100 µM
O=C[C@H](C[C@@H]1CCCNC1=O)NC(=O)[C@H](Cc1ccccc1)NC(=O)c1ccc(-c2ccccc2)cc1 | 5.71 | 6.04 | 5.88 | > 100 µM
O=C[C@H](C[C@@H]1CCCNC1=O)NC(=O)[C@H](Cc1ccccc1)NC(=O)/C=C/c1ccc(F)cc1 | 6.23 | 6.49 | 6.40 | > 100 µM
COc1ccc(/C=C/C(=O)N[C@@H](Cc2ccccc2)C(=O)N[C@H](C=O)C[C@@H]2CCCNC2=O)cc1OC | 5.80 | 5.86 | 5.97 | > 100 µM
O=C[C@H](C[C@@H]1CCCNC1=O)NC(=O)[C@H](Cc1ccccc1)NC(=O)c1ccncc1 | 5.85 | 5.07 | 6.01 | > 100 µM
O=C[C@H](C[C@@H]1CCCNC1=O)NC(=O)[C@H](Cc1ccccc1)NC(=O)c1cccnc1 | 6.36 | 5.45 | 6.52 | > 100 µM
Cc1cc(C(=O)N[C@@H](Cc2ccc(F)cc2)C(=O)N[C@H](C=O)C[C@@H]2CCCNC2=O)no1 | 7.00 |  | 7.15 | > 100 µM
COc1ccc(/C=C/C(=O)N[C@@H](Cc2ccc(F)cc2)C(=O)N[C@H](C=O)C[C@@H]2CCCNC2=O)cc1 | 6.39 | 6.74 | 6.55 | > 100 µM
O=C[C@H](C[C@@H]1CCCNC1=O)NC(=O)[C@H](Cc1ccccc1)NC(=O)CCc1ccccc1 | 6.12 | 6.24 | 6.29 | > 100 µM
O=C[C@H](C[C@@H]1CCCNC1=O)NC(=O)[C@H](CC1CCCCC1)NC(=O)/C=C/c1ccccc1 | 5.92 | 5.98 | 6.09 | > 100 µM
O=C[C@H](C[C@@H]1CCCNC1=O)NC(=O)[C@H](Cc1ccccc1)NC(=O)/C=C/c1ccccc1 | 6.27 |  | 6.43 | > 100 µM
CCCC(=O)N[C@@H](Cc1ccccc1)C(=O)N[C@H](C=O)C[C@@H]1CCCNC1=O | 5.11 | 5.39 | 5.28 | > 100 µM

More lines, main results first:

pIC50 [1] | pEC50 (Enterovirus A71) | Compound | pKi [1] | CC50 at 24 h [2]
6.26 | 6.42 | O=C[C@H](C[C@@H]1CCCNC1=O)NC(=O)[C@H](Cc1ccccc1)NC(=O)c1ccccc1 | 6.42 | > 100 µM
4.87 | 5.19 | CCCCCC(=O)N[C@@H](Cc1ccccc1)C(=O)N[C@H](C=O)C[C@@H]1CCCNC1=O | 5.03 | > 100 µM
6.31 | 6.64 | COc1ccc(/C=C/C(=O)N[C@@H](Cc2ccccc2)C(=O)N[C@H](C=O)C[C@@H]2CCCNC2=O)cc1 | 6.48 | > 100 µM
5.96 | 6.07 | O=C[C@H](C[C@@H]1CCCNC1=O)NC(=O)[C@H](Cc1ccccc1)NC(=O)c1ccco1 | 6.12 | > 100 µM
6.38 | 6.68 | O=C[C@H](C[C@@H]1CCCNC1=O)NC(=O)[C@H](Cc1ccccc1)NC(=O)c1cccs1 | 6.54 | > 100 µM
6.36 | 6.70 | O=C[C@H](C[C@@H]1CCCNC1=O)NC(=O)[C@H](Cc1ccc(F)cc1)NC(=O)/C=C/c1ccccc1 | 6.52 | > 100 µM
6.54 | 6.80 | O=C[C@H](C[C@@H]1CCCNC1=O)NC(=O)[C@H](Cc1ccc(F)cc1)NC(=O)c1cccs1 | 6.70 | > 100 µM
5.25 | 4.78 | CC(C)[C@H](NC(=O)/C=C/c1ccccc1)C(=O)N[C@H](C=O)C[C@@H]1CCCNC1=O | 5.41 | > 100 µM
6.66 | 6.74 | Cc1cc(C(=O)N[C@@H](Cc2ccccc2)C(=O)N[C@H](C=O)C[C@@H]2CCCNC2=O)no1 | 6.66 | > 100 µM
5.56 | 5.63 | CC(C)C[C@H](NC(=O)/C=C/c1ccccc1)C(=O)N[C@H](C=O)C[C@@H]1CCCNC1=O | 5.72 | > 100 µM
